Data published in patent US20250154109A1, “SODIUM CHANNEL BLOCKING COMPOUNDS, DERIVATIVES THEREOF, AND METHODS OF THEIR USE” (LATIGO BIOTHERAPEUTICS, INC, priority 2022, published 2025).
Read-outs that look alike come from different tables or passages of the source.

Target: human Nav1.8 (Homo sapiens, UniProt Q9Y5Y9)
Experiment: SyncroPatch384PE assay (automated patch clamp)
Format: cell-based
Settings: human Nav1.8/b3 CHO cells
[1] = inactivated state block (P2 measurement), read-out: P2 IC50
[2] = resting state block (P1 measurement), read-out: P1 IC50

human Nav1.8, sequence (Q9Y5Y9 whole entry): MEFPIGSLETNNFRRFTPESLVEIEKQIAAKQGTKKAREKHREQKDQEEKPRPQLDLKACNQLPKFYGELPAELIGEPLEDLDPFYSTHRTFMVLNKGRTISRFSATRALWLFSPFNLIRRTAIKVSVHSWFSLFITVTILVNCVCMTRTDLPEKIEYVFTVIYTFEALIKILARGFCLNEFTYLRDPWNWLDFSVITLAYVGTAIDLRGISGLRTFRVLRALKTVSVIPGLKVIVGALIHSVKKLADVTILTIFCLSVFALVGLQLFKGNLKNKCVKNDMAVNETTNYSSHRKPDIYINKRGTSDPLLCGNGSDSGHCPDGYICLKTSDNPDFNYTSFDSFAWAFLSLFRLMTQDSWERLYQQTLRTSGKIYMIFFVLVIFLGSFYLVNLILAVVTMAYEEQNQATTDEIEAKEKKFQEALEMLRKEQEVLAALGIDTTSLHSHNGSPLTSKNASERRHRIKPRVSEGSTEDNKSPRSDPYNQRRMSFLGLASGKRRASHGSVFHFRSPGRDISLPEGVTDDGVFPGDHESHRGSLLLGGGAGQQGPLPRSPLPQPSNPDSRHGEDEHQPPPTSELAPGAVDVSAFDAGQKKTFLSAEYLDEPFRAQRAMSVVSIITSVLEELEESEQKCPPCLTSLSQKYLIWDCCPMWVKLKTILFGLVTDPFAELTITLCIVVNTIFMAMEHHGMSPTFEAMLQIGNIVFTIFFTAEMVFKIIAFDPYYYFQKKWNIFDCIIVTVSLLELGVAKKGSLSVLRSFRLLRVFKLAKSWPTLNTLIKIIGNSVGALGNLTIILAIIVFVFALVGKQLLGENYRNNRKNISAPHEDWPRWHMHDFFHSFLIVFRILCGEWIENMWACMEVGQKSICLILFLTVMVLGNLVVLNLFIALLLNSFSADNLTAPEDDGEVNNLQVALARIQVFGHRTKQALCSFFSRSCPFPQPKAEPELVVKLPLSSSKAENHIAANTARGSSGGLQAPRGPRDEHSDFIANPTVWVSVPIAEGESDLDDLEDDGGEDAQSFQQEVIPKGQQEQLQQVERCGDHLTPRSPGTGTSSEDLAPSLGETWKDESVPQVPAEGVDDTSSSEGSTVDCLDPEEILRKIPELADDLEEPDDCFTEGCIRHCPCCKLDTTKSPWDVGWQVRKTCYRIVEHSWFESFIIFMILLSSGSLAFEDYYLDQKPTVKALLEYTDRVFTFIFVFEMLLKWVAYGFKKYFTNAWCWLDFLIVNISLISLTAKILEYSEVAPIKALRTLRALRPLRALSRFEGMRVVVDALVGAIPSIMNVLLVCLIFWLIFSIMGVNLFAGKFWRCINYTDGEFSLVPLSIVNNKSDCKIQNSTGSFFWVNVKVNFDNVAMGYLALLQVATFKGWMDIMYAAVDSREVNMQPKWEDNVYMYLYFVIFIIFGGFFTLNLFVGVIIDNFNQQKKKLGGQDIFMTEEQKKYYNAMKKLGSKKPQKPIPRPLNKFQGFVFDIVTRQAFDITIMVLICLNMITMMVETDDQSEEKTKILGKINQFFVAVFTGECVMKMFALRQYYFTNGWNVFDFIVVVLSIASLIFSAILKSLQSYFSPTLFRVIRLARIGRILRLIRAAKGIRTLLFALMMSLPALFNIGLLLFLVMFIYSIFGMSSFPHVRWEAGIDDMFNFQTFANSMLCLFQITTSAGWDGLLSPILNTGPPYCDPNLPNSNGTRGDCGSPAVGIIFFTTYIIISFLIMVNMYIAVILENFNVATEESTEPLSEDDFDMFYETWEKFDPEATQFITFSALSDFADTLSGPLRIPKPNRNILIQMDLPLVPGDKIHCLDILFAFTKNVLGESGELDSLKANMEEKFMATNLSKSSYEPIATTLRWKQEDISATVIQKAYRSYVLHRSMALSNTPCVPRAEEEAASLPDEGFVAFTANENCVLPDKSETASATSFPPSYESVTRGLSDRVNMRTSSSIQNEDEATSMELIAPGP

Row | Structure (SMILES) | IC50 [1] | IC50 [2]
1 | Cc1noc(C)c1-c1cnc(N2CCCC(F)(F)CC2)c(C(=O)Nc2cccc([S@](C)(=N)=O)c2)c1C [Example 156, (R)-2-(4,4-difluoroazepan-1-yl)-5-(3,5-dimethylisoxazol-4-yl)-4-methyl-N-(3-(S-methylsulfonimidoyl)phenyl)nicotinamide] | > 200 nM | > 200 nM
2 | Cc1c(-c2cnn(C(C)C)c2)cnc(N2CCCC(F)(F)CC2)c1C(=O)Nc1cccc([S@](C)(=N)=O)c1 [Example 160, (R)-2-(4,4-difluoroazepan-1-yl)-5-(1-isopropyl-1H-pyrazol-4-yl)-4-methyl-N-(3-(S-methylsulfonimidoyl)phenyl)nicotinamide] | 5 to 50 nM | 5 to 50 nM
3 | Cc1c(C(F)(F)F)cnc(N2CCCC(F)(F)CC2)c1C(=O)Nc1cccc([S@@](C)(=N)=O)c1 [Example 163, (S)-2-(4,4-difluoroazepan-1-yl)-4-methyl-N-(3-(S-methylsulfonimidoyl)phenyl)-5-(trifluoromethyl)nicotinamide] | ≤ 5 nM | ≤ 5 nM
4 | Cc1c(-c2ccc(C(F)F)cc2)nnc(N2CCCC(F)(F)CC2)c1C(=O)Nc1cccc([S@](C)(=N)=O)c1 [Example 167, (R)-3-(4,4-difluoroazepan-1-yl)-6-(4-(difluoromethyl)phenyl)-5-methyl-N-(3-(S-methylsulfonimidoyl)phenyl)pyridazine-4-carboxamide] | 5 to 50 nM | 5 to 50 nM
5 | Cc1c(F)cnc(N2CCCC(F)(F)CC2)c1C(=O)Nc1cccc([S@](C)(=N)=O)c1 [Example 168, (R)-2-(4,4-difluoroazepan-1-yl)-5-fluoro-4-methyl-N-(3-(S-methylsulfonimidoyl)phenyl)nicotinamide] | 5 to 50 nM | 5 to 50 nM
6 | Cc1c(-c2ccc(C(F)(F)F)cc2)cnc(N2CCCC(F)(F)CC2)c1C(=O)Nc1cccc([S@](C)(=N)=O)c1 [Example 169, (R)-2-(4,4-difluoroazepan-1-yl)-4-methyl-N-(3-(S-methylsulfonimidoyl)phenyl)-5-(4-(trifluoromethyl)phenyl)nicotinamide] | ≤ 5 nM | ≤ 5 nM
7 | Cc1c(C#N)c(C#N)nc(N2CCCC(F)(F)CC2)c1C(=O)Nc1cccc([S@](C)(=N)=O)c1 [Example 170, (R)-5,6-dicyano-2-(4,4-difluoroazepan-1-yl)-4-methyl-N-(3-(S-methylsulfonimidoyl)phenyl)nicotinamide] | 5 to 50 nM | 5 to 50 nM
8 | Cc1c(Cl)c(C#N)nc(N2CCCC(F)(F)CC2)c1C(=O)Nc1cccc([S@](C)(=N)=O)c1 [Example 171, (R)-5-chloro-6-cyano-2-(4,4-difluoroazepan-1-yl)-4-methyl-N-(3-(S-methylsulfonimidoyl)phenyl)nicotinamide] | ≤ 5 nM | ≤ 5 nM
9 | Cc1nc(N2CCCC(F)(F)CC2)c(C(=O)Nc2cccc([S@](C)(=N)=O)c2)c(C)c1Br [Example 172, (R)-5-bromo-2-(4,4-difluoroazepan-1-yl)-4,6-dimethyl-N-(3-(S-methylsulfonimidoyl)phenyl)nicotinamide] | ≤ 5 nM | ≤ 5 nM
10 | Cc1c(-c2cnn(C(F)(F)F)c2)cnc(N2CCCC(F)(F)CC2)c1C(=O)Nc1cccc([S@](C)(=N)=O)c1 [Example 176, (R)-2-(4,4-difluoroazepan-1-yl)-4-methyl-N-(3-(S-methylsulfonimidoyl)phenyl)-5-(1-(trifluoromethyl)-1H-pyrazol-4-yl)nicotinamide] | ≤ 5 nM | ≤ 5 nM
11 | Cc1c(C(F)(F)F)nnc(N2CCCC(F)(F)CC2)c1C(=O)Nc1cccc([S@@](C)(=O)=NC(=O)[C@@H](C)O)c1 [Example 179, 3-(4,4-difluoroazepan-1-yl)-N-(3-((R)-N-((R)-2-hydroxypropanoyl)-S-methylsulfonimidoyl)phenyl)-5-methyl-6-(trifluoromethyl)pyridazine-4-carboxamide] | ≤ 5 nM | ≤ 5 nM
12 | Cc1c(C(F)(F)F)cnc(N2CCCC(F)(F)CC2)c1C(=O)Nc1cccc([S@@](C)(=O)=NC(=O)C2(N)CCC2)c1 [Example 180, (R)-N-(3-(N-(1-aminocyclobutane-1-carbonyl)-S-methylsulfonimidoyl)phenyl)-2-(4,4-difluoroazepan-1-yl)-4-methyl-5-(trifluoromethyl)nicotinamide] | ≤ 5 nM | ≤ 5 nM

The next lines start with the values.

Row | IC50 [1] | IC50 [2] | Structure (SMILES)
13 | > 200 nM | > 200 nM | Cc1cc(C(N)=O)nc(N2CCCC(F)(F)CC2)c1C(=O)Nc1cccc([S@](C)(=N)=O)c1 [Example 153, (R)-6-(4,4-difluoroazepan-1-yl)-4-methyl-N5-(3-(S-methylsulfonimidoyl)phenyl)pyridine-2,5-dicarboxamide]
14 | 50 to 100 nM | 50 to 100 nM | Cc1c(-c2ccc(C#N)cc2)nnc(N2CCCC(F)(F)CC2)c1C(=O)Nc1cccc([S@](C)(=N)=O)c1 [Example 154, (R)-6-(4-cyanophenyl)-3-(4,4-difluoroazepan-1-yl)-5-methyl-N-(3-(S-methylsulfonimidoyl)phenyl)pyridazine-4-carboxamide]
15 | > 200 nM | > 200 nM | Cc1nc(N2CCOCC2)nc(N2CCCC(F)(F)CC2)c1C(=O)Nc1cccc([S@](C)(=N)=O)c1 [Example 155, (R)-4-(4,4-difluoroazepan-1-yl)-6-methyl-N-(3-(S-methylsulfonimidoyl)phenyl)-2-morpholinopyrimidine-5-carboxamide]
16 | > 200 nM | > 200 nM | Cc1nc(N2CCN(C)CC2)nc(N2CCCC(F)(F)CC2)c1C(=O)Nc1cccc([S@](C)(=N)=O)c1 [Example 157, (R)-4-(4,4-difluoroazepan-1-yl)-6-methyl-2-(4-methylpiperazin-1-yl)-N-(3-(S-methylsulfonimidoyl)phenyl)pyrimidine-5-carboxamide]
17 | 50 to 100 nM | 50 to 100 nM | Cc1nc(N2CC(F)(F)C2)nc(N2CCCC(F)(F)CC2)c1C(=O)Nc1cccc([S@](C)(=N)=O)c1 [Example 158, (R)-4-(4,4-difluoroazepan-1-yl)-2-(3,3-difluoroazetidin-1-yl)-6-methyl-N-(3-(S-methylsulfonimidoyl)phenyl)pyrimidine-5-carboxamide]
18 | 5 to 50 nM | 5 to 50 nM | Cc1c(-c2cnn(C(F)F)c2)cnc(N2CCCC(F)(F)CC2)c1C(=O)Nc1cccc([S@](C)(=N)=O)c1 [Example 159, (R)-2-(4,4-difluoroazepan-1-yl)-5-(1-(difluoromethyl)-1H-pyrazol-4-yl)-4-methyl-N-(3-(S-methylsulfonimidoyl)phenyl)nicotinamide]
19 | > 200 nM | > 200 nM | Cc1nc(N2CCNCC2)nc(N2CCCC(F)(F)CC2)c1C(=O)Nc1cccc([S@](C)(=N)=O)c1 [Example 161, (R)-4-(4,4-difluoroazepan-1-yl)-6-methyl-N-(3-(S-methylsulfonimidoyl)phenyl)-2-(piperazin-1-yl)pyrimidine-5-carboxamide]
20 | ≤ 5 nM | ≤ 5 nM | Cc1c(Cl)c(-c2cnn(C)c2)nc(N2CCCC(F)(F)CC2)c1C(=O)Nc1cccc([S@](C)(=N)=O)c1 [Example 162, (R)-5-chloro-2-(4,4-difluoroazepan-1-yl)-4-methyl-6-(1-methyl-1H-pyrazol-4-yl)-N-(3-(S-methylsulfonimidoyl)phenyl)nicotinamide]
21 | ≤ 5 nM | ≤ 5 nM | Cc1c(C(F)(F)F)cnc(N2CCCC(F)(F)CC2)c1C(=O)Nc1cccc([S@](C)(=N)=O)c1 [Example 164, (R)-2-(4,4-difluoroazepan-1-yl)-4-methyl-N-(3-(S-methylsulfonimidoyl)phenyl)-5-(trifluoromethyl)nicotinamide]
22 | 5 to 50 nM | 5 to 50 nM | Cc1c(-c2cnn(C)c2)cnc(N2CCCC(F)(F)CC2)c1C(=O)Nc1cccc(S(=N)(N)=O)c1 (centres unmarked) [Example 165, 2-(4,4-difluoroazepan-1-yl)-4-methyl-5-(1-methyl-1H-pyrazol-4-yl)-N-(3-sulfamidimidoylphenyl)nicotinamide]
23 | ≤ 5 nM | ≤ 5 nM | Cc1c(-c2ccc(Cl)c(F)c2)cnc(N2CCCC(F)(F)CC2)c1C(=O)Nc1cccc([S@](C)(=N)=O)c1 [Example 166, (R)-5-(4-chloro-3-fluorophenyl)-2-(4,4-difluoroazepan-1-yl)-4-methyl-N-(3-(S-methylsulfonimidoyl)phenyl)nicotinamide]
24 | 100 to 200 nM | > 200 nM | Cc1c(C2CNC2)cnc(N2CCCC(F)(F)CC2)c1C(=O)Nc1cccc(S(C)(=N)=O)c1 (centres unmarked) [Example 173, 5-(azetidin-3-yl)-2-(4,4-difluoroazepan-1-yl)-4-methyl-N-(3-(S-methylsulfonimidoyl)phenyl)nicotinamide]
25 | 5 to 50 nM | 5 to 50 nM | Cc1c(-c2cnn(C)c2)cnc(N2CCCC(F)(F)CC2)c1C(=O)Nc1cccc([S@@](C)(=O)=NC(=O)C(N)C(F)(F)F)c1 (stereo partly drawn) [Example 174, N-(3-((R)-N-(2-amino-3,3,3-trifluoropropanoyl)-S-methylsulfonimidoyl)phenyl)-2-(4,4-difluoroazepan-1-yl)-4-methyl-5-(1-methyl-1H-pyrazol-4-yl)nicotinamide]
26 | 5 to 50 nM | 5 to 50 nM | CNCC(=O)N=[S@](C)(=O)c1cccc(NC(=O)c2c(N3CCCC(F)(F)CC3)ccc(-c3cnn(C)c3)c2C)c1 [Example 175, (R)-6-(4,4-difluoroazepan-1-yl)-2-methyl-3-(1-methyl-1H-pyrazol-4-yl)-N-(3-(S-methyl-N-(methylglycyl)sulfonimidoyl)phenyl)benzamide]
27 | ≤ 5 nM | ≤ 5 nM | Cc1c(C(F)(F)F)nnc(N2CCCC(F)(F)CC2)c1C(=O)Nc1cccc([S@@](C)(=O)=NC(=O)CN)c1 [Example 177, (R)-3-(4,4-difluoroazepan-1-yl)-N-(3-(N-glycyl-S-methylsulfonimidoyl)phenyl)-5-methyl-6-(trifluoromethyl)pyridazine-4-carboxamide]
28 | 5 to 50 nM | 5 to 50 nM | Cc1ncc(-c2cnc(N3CCCC(F)(F)CC3)c(C(=O)Nc3cccc([S@](C)(=N)=O)c3)c2C)o1 [Example 178, (R)-2-(4,4-difluoroazepan-1-yl)-4-methyl-5-(2-methyloxazol-5-yl)-N-(3-(S-methylsulfonimidoyl)phenyl)nicotinamide]
